Measurements: patent US10905651B1, “Zeinmersome nanocarriers for drug delivery to the liver” (King Abdulaziz University, priority 2020, dated 2021)

Legend:
[1] = system: TAA-induced hepatic fibrosis rats; test: Assessment of liver function (plasma ALT and AST) in TAA-induced hepatic fibrosis rats; format: in vivo, rat; settings: mean ± SEM, n=8
Procedure: The protocol for this study was approved by the King Abdulaziz University Research Ethics Committee and adhered to the international guidelines for the Care and Use of Laboratory Animals. Adult Sprague-Dawley male rats weighing 200-250 g were obtained from King Fahd Research Center and housed in cages at 20-22° C. room temperature in a 12 h light-dark cycle. After one week of acclimatization, rats were used in the experiment. Food and water were available ad libitum. Rats were given freshly prepared TAA (0.9% w/v in saline solution, 200 mg/kg, ip) twice weekly for eight weeks. A normal control (NC) group of rats (n=8) received injections of the vehicle twice weekly for eight weeks. The TAA-treated rats were randomly assigned to groups (n=8), including a test group for each dosage of a free drug (not encapsulated in ZMS), each dosage of zeinmersomes encapsulating the drug, and a positive control group (PC) having hepatic fibrosis but receiving a vehicle-only treatment instead of a drug treatment. Five groups of rats (n=8) were given freshly prepared TAA (0.9% w/v in saline solution, 200 mg/kg, ip) twice weekly for eight weeks and a normal control (NC) group received vehicle injections, as described in Example 4. The five TAA groups included a positive control group (PC, untreated) and four groups treated with low and high doses (2 and 4 mg/kg/day) of OM as raw drug (OL & OH, respectively) and the same low and high doses (2 and 4 mg/kg/day) of OM formulated as zeinmersomes (OLZMS & OHZMS, respectively). The OM standard drug was suspended in distilled water containing 0.25% w/v carboxymethyl cellulose. The doses were given by oral gavage once daily for two months. […] At the end of treatment duration, blood samples were withdrawn from the retro-orbital plexus of the rats under light ether anesthesia. Plasma was separated and kept at −80° C. until analysis. Then, the rats were sacrificed by cervical dislocation under ether anesthesia. Liver and duodenum were isolated and parts of each were kept in 10% formalin-saline for histopathological examination. Other portions of liver tissue were homogenized. The plasma levels of ALT and AST and the homogenate levels of IL-6, reduced glutathione (GSH), TNF-α, malondialdehyde (MDA), and protein content were measured using ELISA kits (MyBioSource, Inc. CA, USA). In addition, the concentrations of olmesartan in plasma and liver homogenate were measured by HPLC/MS. Data are expressed as mean±SEM Comparisons between different groups were carried out using one-way analysis of variance (ANOVA) followed by Bonferroni test for multiple comparisons. […] The levels of ALT and AST were measured by using ELISA commercially available kits according to the manufacturer's protocol.

[2] = system: methotrexate-induced intestinal mucositis; settings: pretreatment with 0.5, 1.0, or 5.0 mg/kg; cited from earlier work
[3] = In vitro diffusion studies (Franz diffusion cell); format: physicochemical; settings: within a 4-hour time period; 0.1 μm nylon membrane, buffer pH 7.0 with Tween 20 0.5% w/v
Procedure: The formula characterization was assessed by examining its diffusion pattern. An automated Franz diffusion cell apparatus (MicroettePlus; Hanson Research, Chatsworth, Calif., US) with a diffusion area of 1.76 cm^2 was utilized to examine the diffusion of OM from the prepared formula as described previously (Ahmed et al., 2019. Internat J Pharmaceu 570: 118657). A 0.1 μm nylon diffusion membrane and a buffer (pH 7.0) containing Tween 20 (0.5% w/v) were used, and this was stirred at 400 rpm. The aliquots were analyzed for OM concentration by HPLC as previously reported. The samples were collected at 0.5, 1, 2, 4, 8, 12, 24 and 48 h.

AT2 receptors = target: T1, AT2 receptors (Homo sapiens, UniProt P50052); settings: cited from earlier work
T1 sequence (P50052 1-363): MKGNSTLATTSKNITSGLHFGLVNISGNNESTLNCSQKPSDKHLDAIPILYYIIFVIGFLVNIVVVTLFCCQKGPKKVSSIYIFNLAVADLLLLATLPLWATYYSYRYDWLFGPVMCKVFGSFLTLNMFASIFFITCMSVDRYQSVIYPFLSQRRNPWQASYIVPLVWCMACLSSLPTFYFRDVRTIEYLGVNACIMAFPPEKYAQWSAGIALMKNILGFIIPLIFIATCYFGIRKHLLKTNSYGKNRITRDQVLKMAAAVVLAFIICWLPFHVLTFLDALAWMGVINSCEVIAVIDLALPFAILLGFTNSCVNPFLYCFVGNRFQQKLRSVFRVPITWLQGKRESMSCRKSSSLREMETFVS

[4] = system: TAA-induced hepatic fibrosis rats; test: Histopathology of hepatic sections in TAA-induced hepatic fibrosis rats; format: in vivo, rat; settings: two months, H&E
Procedure: Rats were given freshly prepared TAA (0.9% w/v in saline solution, 200 mg/kg, ip) twice weekly for eight weeks. A normal control (NC) group of rats (n=8) received injections of the vehicle twice weekly for eight weeks. The TAA-treated rats were randomly assigned to groups (n=8), including a test group for each dosage of a free drug (not encapsulated in ZMS), each dosage of zeinmersomes encapsulating the drug, and a positive control group (PC) having hepatic fibrosis but receiving a vehicle-only treatment instead of a drug treatment. Five groups of rats (n=8) were given freshly prepared TAA (0.9% w/v in saline solution, 200 mg/kg, ip) twice weekly for eight weeks and a normal control (NC) group received vehicle injections, as described in Example 4. The five TAA groups included a positive control group (PC, untreated) and four groups treated with low and high doses (2 and 4 mg/kg/day) of OM as raw drug (OL & OH, respectively) and the same low and high doses (2 and 4 mg/kg/day) of OM formulated as zeinmersomes (OLZMS & OHZMS, respectively). […] The plasma levels of ALT and AST and the homogenate levels of IL-6, reduced glutathione (GSH), TNF-α, malondialdehyde (MDA), and protein content were measured using ELISA kits (MyBioSource, Inc. CA, USA). In addition, the concentrations of olmesartan in plasma and liver homogenate were measured by HPLC/MS. […]

[5] = high dose 4 mg/kg/day oral gavage once daily for two months
[6] = low dose 2 mg/kg/day oral gavage once daily for two months

CCCc1nc(C(C)(C)O)c(C(=O)OCc2oc(=O)oc2C)n1Cc1ccc(-c2ccccc2-c2nnn[nH]2)cc1 [OM, (5-methyl-2-oxo-1,3-dioxol-4-yl)methyl 5-(2-hydroxypropan-2-yl)-2-propyl-3-[[4-[2-(2H-tetrazol-5-yl)phenyl]phenyl]methyl]imidazole-4-carboxylate]
plasma ALT [1, 5]: 81.41 U/L | plasma AST [1, 5]: 169.00 U/L | plasma ALT [1, 6]: 114.88 U/L | plasma AST [1, 6]: 198.32 U/L | enteropathy (diarrhea, weight loss, decreased sucrose activity) [2]: caused enteropathy | inflammatory infiltration, vascular congestion, ulcerations, hemorrhagic areas; myeloperoxidase, IL-1β and TNF-α levels [2]: decreased | diffusion of OM (percentage permeated) [3]: ~97.5±13.07% | antagonistic effects on the AT2 receptors (AT2 receptors): almost no antagonistic effects | liver histopathology (fibrosis, inflammatory infiltration, hepatocytic degeneration) ([4]; high dose 4 mg/kg/day oral): mild improvement | liver histopathology (fibrosis, inflammatory infiltration, hepatocytic degeneration) ([4]; low dose 2 mg/kg/day oral): no improvement
